# Reference: ChEMBL document CHEMBL1201862, “PubChem BioAssay data set” (2004)
# Activity calls are given as the source filed them.
# Assays:
# HEK293 [1] = assay: cells; assay type: functional, cell-based; conditions: Homo sapiens
# HEK293 [2] = assay: cells; assay type: functional, cell-based; conditions: Homo sapiens; remark: listed apart in the source
# HEK293 [3] = assay: NOD2 signaling inhibitors in MDP-stimulated cells, cell-based, uHTS, luminescence (AID 2001); assay type: functional; conditions: Homo sapiens
# HEK293 [4] = assay: cells; assay type: functional, cell-based; conditions: Homo sapiens; remark: listed apart in the source
# HEK293 [5] = assay: inhibition of NOD1-driven NF-kB reporter – cell-based, luminescence, uHTS, primary screen (AID 1578); assay type: functional; conditions: Homo sapiens
# [6] = target: Nucleotide-binding oligomerization domain-containing protein 2 (Homo sapiens, UniProt Q9HC29); assay: inhibition of NOD2-driven NF-kB reporter – cell-based, luminescence, uHTS, HEK293 (AID 1566); assay type: functional
# Nucleotide-binding oligomerization domain-containing protein 2, sequence (Q9HC29 whole entry, the tested form may be a part): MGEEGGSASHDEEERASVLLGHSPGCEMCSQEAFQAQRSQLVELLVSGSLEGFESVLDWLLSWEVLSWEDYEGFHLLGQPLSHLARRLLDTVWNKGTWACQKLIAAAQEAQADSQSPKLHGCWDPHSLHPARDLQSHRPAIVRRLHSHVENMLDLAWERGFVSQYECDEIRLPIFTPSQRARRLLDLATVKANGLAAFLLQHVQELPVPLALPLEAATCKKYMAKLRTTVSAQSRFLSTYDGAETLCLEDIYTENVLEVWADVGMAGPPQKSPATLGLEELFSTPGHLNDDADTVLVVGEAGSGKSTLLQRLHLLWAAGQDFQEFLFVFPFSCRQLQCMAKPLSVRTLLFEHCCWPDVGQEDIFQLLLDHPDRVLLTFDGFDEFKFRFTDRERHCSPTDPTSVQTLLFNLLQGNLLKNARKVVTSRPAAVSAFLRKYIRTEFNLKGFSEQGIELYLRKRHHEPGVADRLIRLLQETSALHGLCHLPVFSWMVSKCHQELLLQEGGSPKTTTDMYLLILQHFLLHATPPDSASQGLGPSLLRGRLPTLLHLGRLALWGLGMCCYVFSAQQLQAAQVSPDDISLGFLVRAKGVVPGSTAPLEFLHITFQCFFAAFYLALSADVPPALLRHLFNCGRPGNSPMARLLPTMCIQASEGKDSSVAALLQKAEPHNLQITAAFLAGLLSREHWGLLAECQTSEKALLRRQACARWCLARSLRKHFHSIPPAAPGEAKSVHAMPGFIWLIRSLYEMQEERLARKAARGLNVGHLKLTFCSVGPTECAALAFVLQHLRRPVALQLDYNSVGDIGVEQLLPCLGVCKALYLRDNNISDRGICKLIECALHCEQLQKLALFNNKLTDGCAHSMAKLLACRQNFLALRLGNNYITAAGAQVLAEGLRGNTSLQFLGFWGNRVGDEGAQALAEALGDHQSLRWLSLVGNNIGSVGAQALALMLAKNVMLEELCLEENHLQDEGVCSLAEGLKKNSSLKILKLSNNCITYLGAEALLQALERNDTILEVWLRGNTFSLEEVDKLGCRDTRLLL
# CAAX prenyl protease 2 [7] = target: CAAX prenyl protease 2 (Saccharomyces cerevisiae S288c, UniProt Q03530); assay type: biochemical
# CAAX prenyl protease 1 = CAAX prenyl protease 1 (Saccharomyces cerevisiae S288c, UniProt P47154); assay: yeast CAAX protease Ste24 inhibition – biochemical, S. cerevisiae, plate reader, cherry-pick, dose response (AID 488815)
# CAAX prenyl protease 1, sequence (P47154 whole entry): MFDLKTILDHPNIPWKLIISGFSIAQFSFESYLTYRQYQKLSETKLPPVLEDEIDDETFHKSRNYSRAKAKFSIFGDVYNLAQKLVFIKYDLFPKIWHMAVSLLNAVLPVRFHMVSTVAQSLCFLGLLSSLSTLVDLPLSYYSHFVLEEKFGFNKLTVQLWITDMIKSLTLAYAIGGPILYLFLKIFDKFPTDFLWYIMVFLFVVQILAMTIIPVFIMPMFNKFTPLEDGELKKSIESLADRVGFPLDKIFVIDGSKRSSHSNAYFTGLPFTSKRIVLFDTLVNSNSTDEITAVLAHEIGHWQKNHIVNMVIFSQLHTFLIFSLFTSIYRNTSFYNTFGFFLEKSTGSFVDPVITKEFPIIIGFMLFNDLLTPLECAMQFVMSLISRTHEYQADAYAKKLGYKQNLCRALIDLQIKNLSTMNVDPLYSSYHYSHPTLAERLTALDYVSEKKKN
# HEK293 [8] = assay: cells; assay type: functional, cell-based; conditions: Homo sapiens; remark: listed apart in the source
# [9] = target: T1, Nuclear receptor subfamily 0 group B member 1 (Homo sapiens, UniProt P51843); assay: Luminescence-based cell-based high throughput dose response assay for inhibitors of the orphan nuclear receptor subfamily 0, group B, member 1 (DAX1; NR0B1). [Related pubchem assays (depositor defined):AID504766, AID504790]; assay type: functional
# T1 sequence (P51843 whole entry): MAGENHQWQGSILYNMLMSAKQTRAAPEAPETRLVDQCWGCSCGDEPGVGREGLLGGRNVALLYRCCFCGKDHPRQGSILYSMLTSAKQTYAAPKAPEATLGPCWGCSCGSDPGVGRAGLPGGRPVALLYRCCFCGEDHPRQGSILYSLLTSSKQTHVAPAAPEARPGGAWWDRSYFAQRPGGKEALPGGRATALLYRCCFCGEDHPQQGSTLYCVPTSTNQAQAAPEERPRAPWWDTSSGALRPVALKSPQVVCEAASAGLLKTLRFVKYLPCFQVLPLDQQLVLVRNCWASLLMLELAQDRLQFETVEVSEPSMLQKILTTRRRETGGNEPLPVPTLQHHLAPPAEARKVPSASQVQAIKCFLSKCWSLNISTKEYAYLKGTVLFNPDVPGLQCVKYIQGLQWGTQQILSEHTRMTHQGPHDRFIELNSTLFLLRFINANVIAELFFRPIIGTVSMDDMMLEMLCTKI
# CAAX prenyl protease 2 [10] = target: CAAX prenyl protease 2 (Homo sapiens, UniProt Q9Y256); assay: inhibition of Ras-converting CAAX protease Rce1 – biochemical, yeast membranes, quenched-peptide fluorescence, cherry-pick, dose response (AID 588849)
# CAAX prenyl protease 2 (Homo sapiens, UniProt Q9Y256), sequence (Q9Y256 whole entry): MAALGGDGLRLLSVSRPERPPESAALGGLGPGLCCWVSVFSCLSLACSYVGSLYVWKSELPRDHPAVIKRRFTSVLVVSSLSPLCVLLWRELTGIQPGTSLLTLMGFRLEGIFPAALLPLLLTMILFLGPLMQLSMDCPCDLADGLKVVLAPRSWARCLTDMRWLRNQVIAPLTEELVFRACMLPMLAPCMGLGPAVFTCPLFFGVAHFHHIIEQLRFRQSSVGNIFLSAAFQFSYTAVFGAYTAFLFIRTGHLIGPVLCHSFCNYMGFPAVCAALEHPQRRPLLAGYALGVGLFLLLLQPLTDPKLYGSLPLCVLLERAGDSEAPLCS
# Trypsin = Trypsin (Sus scrofa, UniProt P00761); assay: trypsin protease activity blockade – biochemical, quenched peptide fluorescence, cherry-pick, selectivity assay for Rce1 protease inhibitor project, dose response (AID 488789)
# Cytochrome P450 1A2 [11] = target: T2, Cytochrome P450 1A2 (Homo sapiens, UniProt P05177);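 note: PubChem cytochrome P450 panel assay, CYP1A2 panel member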
# T2 sequence (P05177 whole entry): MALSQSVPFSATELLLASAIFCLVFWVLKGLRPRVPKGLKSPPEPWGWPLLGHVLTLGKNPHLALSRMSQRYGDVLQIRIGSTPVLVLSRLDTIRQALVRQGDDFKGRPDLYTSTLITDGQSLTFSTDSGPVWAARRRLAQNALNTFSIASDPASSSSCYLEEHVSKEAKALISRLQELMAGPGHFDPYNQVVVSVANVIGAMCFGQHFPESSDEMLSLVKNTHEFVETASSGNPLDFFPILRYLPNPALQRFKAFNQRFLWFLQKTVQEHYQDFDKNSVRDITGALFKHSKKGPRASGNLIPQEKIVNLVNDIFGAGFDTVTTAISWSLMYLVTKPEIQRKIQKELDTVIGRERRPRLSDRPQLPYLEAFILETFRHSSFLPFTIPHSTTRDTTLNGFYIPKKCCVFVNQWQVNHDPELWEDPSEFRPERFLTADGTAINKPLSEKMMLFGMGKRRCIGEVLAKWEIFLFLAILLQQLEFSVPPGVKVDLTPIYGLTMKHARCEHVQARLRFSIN
# Cytochrome P450 3A4 = Cytochrome P450 3A4 (Homo sapiens, UniProt P08684);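 note: CYP3A4 tested as one member of a cytochrome P450 panel screen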
# Cytochrome P450 3A4, sequence (P08684 whole entry): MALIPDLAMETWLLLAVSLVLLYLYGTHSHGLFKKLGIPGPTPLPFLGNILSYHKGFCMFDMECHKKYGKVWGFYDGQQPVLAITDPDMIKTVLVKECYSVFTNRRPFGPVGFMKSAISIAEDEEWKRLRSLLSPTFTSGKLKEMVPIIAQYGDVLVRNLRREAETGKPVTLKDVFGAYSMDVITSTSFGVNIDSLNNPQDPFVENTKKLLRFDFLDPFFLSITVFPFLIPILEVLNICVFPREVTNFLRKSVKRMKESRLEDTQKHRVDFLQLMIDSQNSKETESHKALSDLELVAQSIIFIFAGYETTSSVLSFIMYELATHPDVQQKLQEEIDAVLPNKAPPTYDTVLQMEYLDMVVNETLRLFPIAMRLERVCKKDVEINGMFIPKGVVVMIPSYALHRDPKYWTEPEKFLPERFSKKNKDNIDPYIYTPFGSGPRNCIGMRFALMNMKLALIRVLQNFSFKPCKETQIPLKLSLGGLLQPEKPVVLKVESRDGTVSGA
# Cytochrome P450 2C9 = Cytochrome P450 2C9 (Homo sapiens, UniProt P11712)
# Cytochrome P450 2C9, sequence (P11712 whole entry): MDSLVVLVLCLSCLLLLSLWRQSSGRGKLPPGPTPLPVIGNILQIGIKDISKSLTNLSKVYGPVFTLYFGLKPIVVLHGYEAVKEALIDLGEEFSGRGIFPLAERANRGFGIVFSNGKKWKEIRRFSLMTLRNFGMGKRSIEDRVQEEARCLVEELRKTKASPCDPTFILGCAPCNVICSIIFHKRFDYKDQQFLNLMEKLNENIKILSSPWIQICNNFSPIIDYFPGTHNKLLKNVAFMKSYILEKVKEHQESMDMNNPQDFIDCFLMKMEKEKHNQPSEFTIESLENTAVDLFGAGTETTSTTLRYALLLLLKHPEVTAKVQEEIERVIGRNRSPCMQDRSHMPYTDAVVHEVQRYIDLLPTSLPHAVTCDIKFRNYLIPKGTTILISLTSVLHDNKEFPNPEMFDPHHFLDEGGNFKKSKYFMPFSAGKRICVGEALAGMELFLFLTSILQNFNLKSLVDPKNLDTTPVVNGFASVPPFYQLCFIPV
# Cytochrome P450 2D6 = Cytochrome P450 2D6 (Homo sapiens, UniProt P10635);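 note: CYP2D6 member of a cytochrome P450 panel assay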
# Cytochrome P450 2C19 = Cytochrome P450 2C19 (Homo sapiens, UniProt P33261); assay: Cytochrome panel assay with activity outcomes. Panel member name: p450-cyp2c19 Compounds with AC50 equal or less than 10 uM are considered active; assay type: functional
# Cytochrome P450 2C19, sequence (P33261 whole entry): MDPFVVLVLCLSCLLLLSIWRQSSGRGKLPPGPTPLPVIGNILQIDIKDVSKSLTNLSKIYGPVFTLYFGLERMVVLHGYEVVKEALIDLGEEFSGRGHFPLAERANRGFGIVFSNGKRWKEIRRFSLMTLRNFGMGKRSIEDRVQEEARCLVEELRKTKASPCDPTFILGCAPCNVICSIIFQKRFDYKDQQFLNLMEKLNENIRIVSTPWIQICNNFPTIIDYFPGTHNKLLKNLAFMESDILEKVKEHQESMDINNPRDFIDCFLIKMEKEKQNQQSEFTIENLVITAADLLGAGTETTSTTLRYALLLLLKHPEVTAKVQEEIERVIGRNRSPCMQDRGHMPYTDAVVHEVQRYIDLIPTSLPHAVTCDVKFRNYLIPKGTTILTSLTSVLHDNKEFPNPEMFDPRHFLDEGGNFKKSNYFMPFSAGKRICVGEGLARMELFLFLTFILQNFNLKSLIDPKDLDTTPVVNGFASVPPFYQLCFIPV
# HeLa [12] = assay: ATP-based viability loss in HeLa cells – cell-based, CellTiter-Glo luminescence, cherry-pick samples, cytotoxicity control for MITF activator project, dose response (AID 540259); assay type: functional; conditions: Homo sapiens
# H4 = assay: Luminescence Cell-Based Dose Response HTS to Identify Activators of 5'UTR Stem-Loop Driven Prion Protein mRNA Translation in H4 Neuroglioblastoma Cells. [Related pubchem assays: 1829 (Project Summary), 1814 (Primary HTS)]; assay type: functional; conditions: Homo sapiens
# [13] = Luminescence Cell-Based Dose Response HTS to Identify Activators of Luciferase Translation or Activity in H4 […] Cells. [Related pubchem assays: 1829 (Project Summary), 1814 (Primary HTS)]; assay type: functional
# [14] = target: Luciferin 4-monooxygenase (Photinus pyralis, UniProt P08659); assay: inhibition of purified Photinus pyralis luciferase – biochemical, luminescence, dose response (AID 1891)
# [15] = Luminescence Cell-Based Dose Confirmation HTS to Identify Inhibitors of Platelet Dense Granule Release. [Related pubchem assays: 1663 (Primary HTS), 1678 (Summary of Project)]; assay type: functional
# Cytochrome P450 1A2 [16] = target: T2, Cytochrome P450 1A2; remark: listed apart in the source
# [17] = target: UDP-galactopyranose mutase (Mycobacterium tuberculosis, UniProt P9WIQ1); assay: Inhibitors of Mycobacterium tuberculosis UDP-galactopyranose mutase (UGM) enzyme Measured in Biochemical System Using Plate Reader - 2105-02_Inhibitor_Dose_CherryPick_Activity. [Related pubchem assays (depositor defined):AID504439]
# UDP-galactopyranose mutase, sequence (P9WIQ1 whole entry, the tested form may be a part): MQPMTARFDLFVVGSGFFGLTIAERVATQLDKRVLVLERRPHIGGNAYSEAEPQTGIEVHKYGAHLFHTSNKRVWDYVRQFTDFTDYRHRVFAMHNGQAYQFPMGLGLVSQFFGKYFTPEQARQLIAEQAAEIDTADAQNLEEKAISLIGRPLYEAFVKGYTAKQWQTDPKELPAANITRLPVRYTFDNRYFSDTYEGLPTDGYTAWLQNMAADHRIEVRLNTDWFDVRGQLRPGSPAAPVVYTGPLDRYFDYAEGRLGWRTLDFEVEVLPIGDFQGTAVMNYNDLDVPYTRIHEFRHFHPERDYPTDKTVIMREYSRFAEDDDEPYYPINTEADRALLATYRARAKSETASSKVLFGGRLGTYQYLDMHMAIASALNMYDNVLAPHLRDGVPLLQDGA
# [18] = target: T3, RNA-binding protein pos-1 (Caenorhabditis elegans, UniProt G5EF15); assay: disruptors of C. elegans POS-1 RNA interaction – biochemical, fluorescence polarization, dose response (AID 1964);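 note: purified POS-1 fused to maltose binding protein made in E. coli; potency of compounds blocking POS-1 binding to fluorescent RNA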
# T3 sequence (G5EF15 whole entry): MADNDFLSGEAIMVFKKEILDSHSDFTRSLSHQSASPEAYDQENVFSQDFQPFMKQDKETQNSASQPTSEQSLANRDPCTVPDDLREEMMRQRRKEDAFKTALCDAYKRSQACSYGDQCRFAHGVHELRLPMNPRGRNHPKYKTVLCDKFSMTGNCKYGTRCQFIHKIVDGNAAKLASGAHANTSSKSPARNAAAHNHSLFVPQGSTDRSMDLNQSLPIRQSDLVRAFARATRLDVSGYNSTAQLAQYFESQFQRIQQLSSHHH
# Keap1/Nrf2 = Keap1/Nrf2 (Homo sapiens, UniProt Q14145); assay: disruptors of Keap1 binding to Nrf2 peptide – biochemical, fluorescence polarization, cherry-picked samples, dose response (AID 588683)
# Keap1/Nrf2, sequence (Q16236 whole entry): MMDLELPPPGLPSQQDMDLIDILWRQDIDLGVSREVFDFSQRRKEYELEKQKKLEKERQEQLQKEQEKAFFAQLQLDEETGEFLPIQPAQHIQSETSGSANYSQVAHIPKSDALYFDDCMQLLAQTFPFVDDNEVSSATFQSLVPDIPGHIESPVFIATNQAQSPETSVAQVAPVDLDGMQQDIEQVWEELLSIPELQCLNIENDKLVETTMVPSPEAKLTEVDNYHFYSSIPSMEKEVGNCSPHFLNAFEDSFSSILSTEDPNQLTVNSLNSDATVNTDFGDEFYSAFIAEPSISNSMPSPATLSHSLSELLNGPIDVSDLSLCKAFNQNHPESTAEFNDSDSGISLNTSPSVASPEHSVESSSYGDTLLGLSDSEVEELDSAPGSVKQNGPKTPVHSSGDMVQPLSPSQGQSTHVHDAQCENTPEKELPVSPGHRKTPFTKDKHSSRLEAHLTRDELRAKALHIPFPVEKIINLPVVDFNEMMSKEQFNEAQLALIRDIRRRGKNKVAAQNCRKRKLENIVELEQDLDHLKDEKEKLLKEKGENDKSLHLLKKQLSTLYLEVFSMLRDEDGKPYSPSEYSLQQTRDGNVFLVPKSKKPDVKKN
# Keap1/Nrf2, sequence (Q14145 whole entry): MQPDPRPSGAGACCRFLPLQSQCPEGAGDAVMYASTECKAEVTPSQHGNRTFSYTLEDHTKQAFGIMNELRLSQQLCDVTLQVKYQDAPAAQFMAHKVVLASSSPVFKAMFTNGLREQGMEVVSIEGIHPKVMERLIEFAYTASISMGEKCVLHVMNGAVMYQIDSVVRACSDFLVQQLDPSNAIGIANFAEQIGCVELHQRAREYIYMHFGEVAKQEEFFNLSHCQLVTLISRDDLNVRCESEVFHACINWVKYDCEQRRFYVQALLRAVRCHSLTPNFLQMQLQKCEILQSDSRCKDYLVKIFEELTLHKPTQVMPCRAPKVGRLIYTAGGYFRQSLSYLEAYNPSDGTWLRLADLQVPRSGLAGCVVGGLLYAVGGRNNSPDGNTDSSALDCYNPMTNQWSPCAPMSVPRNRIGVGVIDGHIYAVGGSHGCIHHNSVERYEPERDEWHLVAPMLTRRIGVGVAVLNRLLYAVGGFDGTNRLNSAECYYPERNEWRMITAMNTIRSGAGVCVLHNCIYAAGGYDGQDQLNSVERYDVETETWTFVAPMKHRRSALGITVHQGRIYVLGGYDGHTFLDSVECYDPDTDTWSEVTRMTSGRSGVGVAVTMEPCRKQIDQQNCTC
# HeLa [19] = assay: viability loss in HeLa cells – cell-based, 24 h, cherry-picked samples, cytotoxicity control, dose response (AID 504726); assay type: functional; conditions: Homo sapiens;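 note: potency for cytotoxicity as loss of luminescence signal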
# ORF 73 = ORF 73 (Human herpesvirus 8, UniProt O40947); assay: KSHV LANA DNA-binding disruption – biochemical, fluorescence polarization, cherry-picked samples, dose response (AID 504725); parameters: species or system Human gammaherpesvirus 8;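 note: fluorescence polarization of a labeled DNA duplex reporting LANA DNA binding; potency is for inhibitors that block LANA binding to the DNA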
# [20] = target: T4, Zinc finger protein mex-5 (Caenorhabditis elegans, UniProt Q9XUB2); assay: potency of MEX-5 RNA-binding blockers – biochemical, C. elegans, fluorescence polarization, dose response (AID 1960)
# T4 sequence (Q9XUB2 whole entry): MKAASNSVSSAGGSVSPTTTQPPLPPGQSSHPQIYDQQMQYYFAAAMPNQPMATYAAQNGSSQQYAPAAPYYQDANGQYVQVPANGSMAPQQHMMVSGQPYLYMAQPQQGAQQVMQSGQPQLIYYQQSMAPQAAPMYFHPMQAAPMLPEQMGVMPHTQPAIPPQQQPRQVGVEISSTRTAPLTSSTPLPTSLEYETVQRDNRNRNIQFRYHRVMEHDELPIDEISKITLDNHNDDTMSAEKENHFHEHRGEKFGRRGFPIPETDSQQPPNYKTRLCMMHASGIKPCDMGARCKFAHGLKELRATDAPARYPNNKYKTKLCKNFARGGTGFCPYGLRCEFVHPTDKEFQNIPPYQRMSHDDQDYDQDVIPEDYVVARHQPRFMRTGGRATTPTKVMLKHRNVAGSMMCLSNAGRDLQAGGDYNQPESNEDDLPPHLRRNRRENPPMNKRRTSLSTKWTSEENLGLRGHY
# [21] = alpha-synuclein stem-loop luciferase translation blockers – H4 neuroglioma cells, luminescence, confirmation (AID 1988); assay type: functional, cell-based
# [22] = luciferase reporter signal suppression in cells – H4 neuroglioma cells, luminescence, dose response (AID 1990); assay type: functional, cell-based
# [23] = Luminescence Cell-Based Dose Response HTS to Identify Inhibitors of 5'UTR Stem-Loop Driven Prion Protein mRNA Translation in H4 Neuroglioblastoma Cells. [Related pubchem assays: 1827 (Project Summary), 1813 (Primary HTS)]; assay type: functional
# Beta-lactamase [24] = target: Beta-lactamase (Salmonella choleraesuis (strain SC-B67), UniProt Q5J463)
# Beta-lactamase [25] = target: Beta-lactamase (Pseudomonas aeruginosa, UniProt Q79MP6);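 note: biochemical dose-response test of metallo-beta-lactamase enzyme inhibition, read out by epi-absorbance; purified recombinant IMP-1 metallo-beta-lactamase with nitrocefin as substrate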
structure (smiles),measurement,setting,value
Cc1cc(/C=C2\SC(=S)N(C)C2=O)c(C)n1-c1cccc(O)c1,IC50,HEK293 [1],4.55 µM (active)
same,IC50,HEK293 [2],> 20 µM (inactive)
same,IC50,HEK293 [3],0.695 µM (active)
same,IC50,HEK293 [4],9.54 µM (active)
same,EC50,HEK293 [5],9.29 µM (active)
same,EC50,[6],1.1 µM (active)
CN(C)C(=O)COc1ccc2ccc(=O)oc2c1,AC50,CAAX prenyl protease 2 [7],41.5 µM (active)
same,AC50,CAAX prenyl protease 1,6.76 µM (active)
CC(=O)NNc1ncnc2ccccc12,IC50,HEK293 [8],> 67.5 µM (inactive)
same,IC50,[9],> 67.5 µM (inactive)
CS(=O)(=O)Nc1ccc(C2=NN(S(C)(=O)=O)C(c3cccs3)C2)cc1 (stereo not given),AC50,CAAX prenyl protease 2 [7],6.27 µM (active)
same,AC50,CAAX prenyl protease 2 [10],2.38 µM (active)
same,AC50,Trypsin,4.41 µM (active)
O=C(O)c1cc(/N=N\c2ccc(S(=O)(=O)Nc3ccccn3)cc2)ccc1O,AC50,Cytochrome P450 1A2 [11],inactive
same,AC50,Cytochrome P450 3A4,inactive
same,AC50,Cytochrome P450 2C9,7.94 µM (inconclusive)
same,AC50,Cytochrome P450 2D6,inactive
same,AC50,Cytochrome P450 2C19,inactive
CCn1c(C(=O)OC)cc2c1ccn2-c1ccc(F)cc1,AC50,HeLa [12],91.9 µM (active)
same,EC50,H4,> 120 µM (not active)
same,EC50,[13],69.7 µM (active)
COCc1cc(C)n(CC(=O)NCc2ccccc2)c(=O)c1C#N,AC50,CAAX prenyl protease 2 [10],25.8 µM (active)
same,AC50,CAAX prenyl protease 1,7.22 µM (active)
COc1ccccc1NC(=O)Nc1ccc(C(=O)N2CCCCC2)cc1,AC50,HeLa [12],67 µM (active)
same,EC50,[14],2.01 µM (active)
same,EC50,[15],6.67 µM (active)
COc1ccc(-n2c(=O)c(-c3ccccc3)nc3cnc(N4CCN(C)CC4)nc32)cc1,AC50,Cytochrome P450 1A2 [16],20 µM (inconclusive)
same,AC50,Cytochrome P450 3A4,inconclusive
same,AC50,Cytochrome P450 2C9,31.6 µM (inconclusive)
CC1(C)Nc2ccccc2C(=O)N1c1ccc(Br)cc1,IC50,HEK293 [8],> 67.5 µM (inactive)
same,IC50,[9],> 67.5 µM (inactive)
CN1C(=O)C(=N)c2c3ccccc3c(O)c3c(Br)ccc1c23,AC50,[17],0.519 µM (active)
same,EC50,[18],0.66 µM (inconclusive)
same,AC50,Keap1/Nrf2,0.54 µM (active)
same,AC50,HeLa [19],303 µM (active)
same,AC50,ORF 73,2.73 µM (active)
same,EC50,[20],< 0.06 µM (inconclusive)
CC(C)COc1ccc(C(=O)Nc2sc3c(c2C(=O)O)CC(C)(C)OC3)cc1,EC50,[21],> 120 µM (not active)
same,IC50,HEK293 [1],> 20 µM (inactive)
same,IC50,HEK293 [2],12.6 µM (active)
same,IC50,HEK293 [3],5.19 µM (active)
same,IC50,HEK293 [4],> 20 µM (inactive)
same,EC50,[22],11.3 µM (active)
same,EC50,HEK293 [5],2.59 µM (active)
same,EC50,[23],11.2 µM (active)
same,EC50,[6],0.22 µM (active)
O=C(c1ccc2c(c1)N(Cc1ccccc1)C(=O)CS2)N1CCOCC1,AC50,Cytochrome P450 1A2 [11],inconclusive
same,AC50,Cytochrome P450 2C9,14.1 µM (inconclusive)
same,AC50,Cytochrome P450 2C19; read-out: AC50,28.2 µM (inconclusive)
CN1C(=O)c2cccc3c(N)ccc(c23)C1=O,IC50,Beta-lactamase [24],5.56 µM (active)
same,AC50,[17],1.59 µM (active)
same,EC50,[18],0.363 µM (inconclusive)
same,AC50,Keap1/Nrf2,0.839 µM (active)
same,IC50,Beta-lactamase [25],10.5 µM (inactive)
same,EC50,[20],0.116 µM (inconclusive)
